Reference: ChEMBL document CHEMBL3525955, “Glucuronidation of the red clover isoflavone irilone by liver microsomes from different species and human UDP-glucuronosyltransferases” (Drug Metab Dispos, 2011)

Tests used:
Type in all cases: ADME
[1] = molecular target: T1, UDP-glucuronosyltransferase 1A8 (Homo sapiens, UniProt Q9HAW9); assay: Substrate inhibition of human recombinant UGT1A8 assessed as IRI-O-5-monoglucuronide formation incubated for 5 mins prior to UDPGA addition measured after 90 mins by Eadie-Hoftsee plot analysis
T1 sequence (Q9HAW9 whole entry): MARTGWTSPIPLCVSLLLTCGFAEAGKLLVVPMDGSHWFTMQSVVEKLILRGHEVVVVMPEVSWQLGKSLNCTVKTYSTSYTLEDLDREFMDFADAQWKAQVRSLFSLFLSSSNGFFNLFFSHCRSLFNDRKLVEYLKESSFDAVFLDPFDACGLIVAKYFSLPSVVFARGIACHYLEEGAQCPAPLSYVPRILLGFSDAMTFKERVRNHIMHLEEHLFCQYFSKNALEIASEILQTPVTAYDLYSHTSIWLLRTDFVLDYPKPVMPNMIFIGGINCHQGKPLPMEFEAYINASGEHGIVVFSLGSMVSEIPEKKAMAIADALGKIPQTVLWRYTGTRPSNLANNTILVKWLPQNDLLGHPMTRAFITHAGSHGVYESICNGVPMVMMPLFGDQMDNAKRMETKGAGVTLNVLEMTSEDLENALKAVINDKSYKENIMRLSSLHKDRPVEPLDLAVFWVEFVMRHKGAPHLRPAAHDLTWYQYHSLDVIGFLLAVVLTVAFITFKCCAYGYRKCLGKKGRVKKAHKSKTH

[2] = molecular target: T2, UDP-glucuronosyltransferase 1A10 (Homo sapiens, UniProt Q9HAW8); assay: Substrate inhibition of human recombinant UGT1A10 assessed as IRI-O-5-monoglucuronide formation incubated for 5 mins prior to UDPGA addition measured after 90 mins by Eadie-Hoftsee plot analysis
T2 sequence (Q9HAW8 whole entry): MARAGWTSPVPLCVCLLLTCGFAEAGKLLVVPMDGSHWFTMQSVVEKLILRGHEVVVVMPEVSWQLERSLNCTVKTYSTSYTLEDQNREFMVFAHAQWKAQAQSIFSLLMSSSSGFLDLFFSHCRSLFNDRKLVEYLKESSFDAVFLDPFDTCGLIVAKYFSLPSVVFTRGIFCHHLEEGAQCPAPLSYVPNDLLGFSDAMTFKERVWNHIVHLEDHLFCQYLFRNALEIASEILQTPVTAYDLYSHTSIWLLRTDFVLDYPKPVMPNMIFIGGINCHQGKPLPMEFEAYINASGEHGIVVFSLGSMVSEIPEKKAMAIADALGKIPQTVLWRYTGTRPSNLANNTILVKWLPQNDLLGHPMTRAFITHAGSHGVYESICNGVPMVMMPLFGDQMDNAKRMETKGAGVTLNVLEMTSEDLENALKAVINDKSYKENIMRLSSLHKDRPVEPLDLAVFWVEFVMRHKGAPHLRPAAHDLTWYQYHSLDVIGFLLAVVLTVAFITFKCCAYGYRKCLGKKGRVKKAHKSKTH

[3] = molecular target: T2, UDP-glucuronosyltransferase 1A10; assay: Substrate inhibition of human recombinant UGT1A10 assessed as IRI-O-4'-monoglucuronide formation incubated for 5 mins prior to UDPGA addition measured after 90 mins by Eadie-Hoftsee plot analysis
[4] = molecular target: T3, UDP-glucuronosyltransferase 2B15 (Homo sapiens, UniProt P54855); assay: Drug metabolism assessed as human recombinant UGT2B15-mediated glucuronidation incubated for 5 mins prior to UDPGA addition measured after 90 mins by HPLC-DAD analysis; settings: recombinant enzyme, 1.5 h
T3 sequence (P54855 whole entry): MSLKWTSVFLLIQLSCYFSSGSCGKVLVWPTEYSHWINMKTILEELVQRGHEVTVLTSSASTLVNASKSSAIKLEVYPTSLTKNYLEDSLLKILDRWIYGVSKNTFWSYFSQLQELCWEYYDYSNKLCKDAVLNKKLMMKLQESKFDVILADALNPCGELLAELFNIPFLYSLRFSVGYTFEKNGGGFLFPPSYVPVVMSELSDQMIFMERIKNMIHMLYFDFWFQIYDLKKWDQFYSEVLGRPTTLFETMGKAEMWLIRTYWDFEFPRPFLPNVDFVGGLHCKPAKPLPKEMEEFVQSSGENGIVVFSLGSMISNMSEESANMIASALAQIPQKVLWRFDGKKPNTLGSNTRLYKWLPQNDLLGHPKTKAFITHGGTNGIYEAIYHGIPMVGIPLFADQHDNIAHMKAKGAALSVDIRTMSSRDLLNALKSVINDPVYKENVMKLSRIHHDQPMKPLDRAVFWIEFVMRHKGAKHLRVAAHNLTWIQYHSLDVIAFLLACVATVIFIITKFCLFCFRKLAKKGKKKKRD

[5] = tested on: Liver microsome; assay: Intrinsic clearance in human liver microsomes incubated for 5 mins prior to UDPGA addition measured after 90 mins; settings: 1.5 h
[6] = molecular target: Liver microsome; assay: Drug metabolism in Sprague-Dawley rat liver microsomes assessed as substrate inhibition of IRI-O-4'-monoglucuronide formation incubated for 5 mins prior to UDPGA addition measured after 90 mins by Eadie-Hoftsee plot analysis
[7] = molecular target: T4, UDP-glucuronosyltransferase 1A7 (Homo sapiens, UniProt Q9HAW7); assay: Drug metabolism assessed as human recombinant UGT1A7-mediated irilone-O-4'-monoglucuronide formation at 25 uM incubated for 5 mins prior to UDPGA addition measured after 90 mins by HPLC-DAD analysis; settings: recombinant enzyme, 1.5 h
T4 sequence (Q9HAW7 whole entry): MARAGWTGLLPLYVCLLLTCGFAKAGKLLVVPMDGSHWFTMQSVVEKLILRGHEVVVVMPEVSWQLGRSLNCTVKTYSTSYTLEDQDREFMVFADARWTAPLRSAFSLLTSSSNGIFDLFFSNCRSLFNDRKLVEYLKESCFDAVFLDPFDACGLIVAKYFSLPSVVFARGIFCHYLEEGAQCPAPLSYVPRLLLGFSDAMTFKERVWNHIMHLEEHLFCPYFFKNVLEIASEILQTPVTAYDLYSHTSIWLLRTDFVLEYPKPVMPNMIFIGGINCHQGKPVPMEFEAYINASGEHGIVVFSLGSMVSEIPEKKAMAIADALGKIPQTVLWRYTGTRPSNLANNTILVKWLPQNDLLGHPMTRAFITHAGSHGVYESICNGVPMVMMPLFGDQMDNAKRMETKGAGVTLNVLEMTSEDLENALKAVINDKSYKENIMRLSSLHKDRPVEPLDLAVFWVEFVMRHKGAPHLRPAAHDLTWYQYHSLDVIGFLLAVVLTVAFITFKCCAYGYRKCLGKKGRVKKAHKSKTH

[8] = tested on: Liver microsome; assay: Drug metabolism in human liver microsomes assessed as IRI-O-5-monoglucuronide formation incubated for 5 mins prior to UDPGA addition measured after 90 mins by Eadie-Hoftsee plot analysis; settings: 1.5 h
[9] = molecular target: T2, UDP-glucuronosyltransferase 1A10; assay: Drug metabolism assessed as human recombinant UGT1A10-mediated irilone-O-4'-monoglucuronide formation incubated for 5 mins prior to UDPGA addition measured after 90 mins by HPLC-DAD analysis; settings: recombinant enzyme, 1.5 h

O=c1c(-c2ccc(O)cc2)coc2cc3c(c(O)c12)OCO3
Ki [1]: 22.6 µM | Ki [2]: Not Active | Ki [3]: 121 µM | Drug metabolism [4]: metabolite_not_detected | CLH [5]: 48500 µL/min/mg | Ki [6]: 44.7 µM | Drug metabolism [7]: metabolite_detected | Km [8]: 9.8 µM | Vmax [8]: 0.43 nmol/mg/min | Drug metabolism [9]: metabolite_detected
